Assay results from PubChem BioAssay AID504313 (Emory University Molecular Libraries Screening Center, 2011).
Activity calls are given as the source filed them. The rule behind the calls is not given here.

Molecular target: X-box-binding protein 1 (Homo sapiens) (UniProt P17861)
Test: inhibitors of XBP1 reporter signal, dose response, counter-screen, cell-based (AID 504313);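 note: CHO cells carrying an XBP1 reporter stimulated with tunicamycin; potency is for inhibition of the tunicamycin-induced reporter signal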
Settings: XBP1 reporter cell assay, percent of control

| Structure (SMILES) | IC50 |
| --- | --- |
| CC(C)CCn1c(=O)c(C(=O)N/N=C/c2cccc(F)c2)c(O)c2ccccc21 | 3.49 µM |
| Nc1cccc(Nc2nc(OC(C(F)(F)F)C(F)(F)F)nc(OC(C(F)(F)F)C(F)(F)F)n2)c1 | 2.09 µM |
| O=C(c1ccc(Cl)cc1)N1CCC(O)(CSc2ccc(Cl)cc2Cl)CC1 | > 10 µM (inactive) |
| O=C(Nc1ccc(Cl)cc1)Nc1ccc(N2CCCC2)c(S(=O)(=O)Nc2ccccc2Cl)c1 | inactive |
| S=C(Nc1ccccc1)Nc1ccc(OCc2ccc(Cl)cc2Cl)cc1 | 0.19 µM |
| O=C(CN1c2ccccc2Sc2ccccc21)NNC(=O)Nc1cccc(Cl)c1 | > 10 µM (inactive) |
| CCOc1ccc2nc(NC(=O)CSc3nnnn3C3CCCCC3)sc2c1 | > 10 µM (inactive) |
| Cc1ccc2[nH]c(O)c(N=NC(=O)CCc3ccccc3)c2c1Br | inactive |
| CCCCn1c(=O)[nH]c(=O)c2c1nc(-c1ccc(OCCC)c(OCC)c1)n2C | > 10 µM (inactive) |
| O=C(N=Nc1c(O)n(Cc2ccccc2)c2ccccc12)c1cc2ccccc2cc1O | inactive |
| CC(C)(C)c1ccc(-c2n[nH]c(=S)n2C2CCCC2)cc1 | > 10 µM (inactive) |
| C#CC(=O)N(c1cc(OC)ccc1OC)C(C(=O)NC1CCCC1)c1cccs1 (stereo not given) | inactive |
| COc1ccccc1-c1nnc(NC(=O)c2ccc(S(=O)(=O)N(C)Cc3ccccc3)cc2)o1 | inactive |
| COCCn1cnc2c(c1=O)c1nc3ccccc3nc1n2/N=C/c1cccc(OC)c1 | inactive |
| O=C(c1nnsc1S(=O)(=O)c1ccc(Cl)cc1)N1CCOCC1 | inactive |
| Cc1ccc(NN2C(=O)C=C(c3ccc(Cl)cc3)C2=O)cc1 | inactive |
| CCN1/C(=C/c2ccc3cc(C)ccc3[n+]2C)Sc2ccc3sccc3c21 | 2.28 µM |
| C=C1C(=O)O[C@@H]2C[C@@H](C)[C@@H]3C=CC(=O)[C@@]3(C)[C@@H](OC(C)=O)[C@H]12 | 2.2 µM |
| CCCCCc1c(C)nc(NCc2ccccc2)[nH]c1=O | > 10 µM (inactive) |
| O=c1[nH]c(NNC(=S)NC2CCCCC2)nc2c1C1(CCCC1)Cc1ccccc1-2 | > 10 µM (inactive) |
| CN1CC(c2ccccc2)C2(SC(=S)N(Cc3ccco3)C2=O)C12C(=O)Nc1ccccc12 (stereo not given) | > 10 µM (inactive) |
| Nc1ccc(SC(F)(F)F)cc1C(=O)c1ccccc1 | inactive |
| Cc1cccc(OCC(=O)N/N=C\C=C\c2ccc3c(c2)OCO3)c1C | > 10 µM (inactive) |
| FC(F)(F)c1cccc(CN2CCC(c3cc(-c4cccs4)n[nH]3)CC2)c1 | > 10 µM (inactive) |
| CCOC(=O)c1c(CN2CCOCC2)n(-c2ccccc2)c2cc(Br)c(O)cc12 | > 10 µM (inactive) |

| Structure (SMILES) | IC50 |
| --- | --- |
| COc1cccc(NC(=O)CSc2nnc(-c3cc(C)n(-c4ccccc4)c3C)o2)c1 | 0.41 µM |
| NC(=S)n1[nH]c(-c2ccc([N+](=O)[O-])cc2)c(N=Nc2cccc([N+](=O)[O-])c2)c1=O | inactive |
| COC(=O)CS(=O)(=O)c1nnc([C@H](Cc2ccccc2)NC(=O)OC(C)(C)C)o1 | inactive |
| O=C(c1ccc(Cl)cc1)c1c[nH]c(C(=O)NNc2cccc(Cl)n2)c1 | > 10 µM (inactive) |
| COc1ccc(-c2nc(NC(=O)Cn3ccc(C(F)(F)F)n3)sc2C)cc1 | > 10 µM (inactive) |
| O=[N+]([O-])c1cc(S(=O)(=O)C(F)(F)F)ccc1Sc1nc2ccccc2[nH]1 | inactive |
| Cc1cc(Cl)ccc1OCc1n[nH]c(=S)n1C1CCCCC1 | inactive |
| O=C(Nc1cccc(Cl)c1Cl)c1cc(S(=O)(=O)NCCc2ccccc2)ccc1F | inactive |
| O=C(OCC(F)(F)F)c1cccc(COc2ccc3ccccc3c2)c1 | 0.98 µM |
| Cc1ccc(NC2=C/C(=N\S(=O)(=O)c3cccs3)c3ccccc3C2=O)c(C)c1 | 0.55 µM |
| CCOc1ccc(/C=C/C2=Cc3c(sc(NC(=O)CSc4n[nH]c(N)n4)c3C#N)C(C)(C)C2)cc1 | > 10 µM (inactive) |
| CC(C)C[C@H](NC(=O)OC(C)(C)C)C(=O)N/N=C/C1=Cc2ccccc2OC1C (stereo not given in full) | inactive |
| CCCCCCn1c(CN2CCN(Cc3ccccc3)CC2)nc2c1c(=O)n(C)c(=O)n2C | > 10 µM (inactive) |
| COc1ccc(C(=O)Nc2nnc(-c3ccco3)s2)cc1 | inactive |
| Cc1ccc(/C=N/N2C(=S)SC(C)(C)C2N(O)C(=O)Nc2ccc([N+](=O)[O-])cc2)cc1 (stereo not given) | 3.54 µM |
| CC(C)CCSc1nc2c(c(=O)[nH]c(=O)n2C)n1CCCc1ccccc1 | > 10 µM (inactive) |
| Cc1ccc(C(C)C)c(OCC(=O)N/N=C/C2CCCCC2)c1 | inactive |
| CC1=CCC[C@@H]2[C@@](C)(CC/C(C)=C/C(=O)O)[C@H](C)CC[C@@]12C | > 10 µM (inactive) |
| CN(C)c1ccc(-c2nc3ccccn3c2/N=C/c2ccc(Br)cc2)cc1 | > 10 µM (inactive) |
| Cc1ccc(-c2nnc(-c3ccc(NC(=O)Cc4cccs4)cc3)o2)cc1 | > 10 µM (inactive) |
| Nc1cc(Cl)ccc1Oc1ccc(Cl)cc1 | inactive |
| NC(N)=N/N=C/c1cn(-c2ccccc2)nc1-c1cccs1 | > 10 µM (inactive) |
| CCCOC(=O)c1ccc(Oc2cn[nH]c2-c2ccc(OCC)cc2O)cc1 | inactive |
| Nc1ccc(N2CCCCCC2)cc1 | > 10 µM (inactive) |
| O=c1c2ccccc2nc2n1CCN2Cc1ccc(Cl)cc1 | > 10 µM (inactive) |
